# Measured values: ChEMBL document CHEMBL1201862, “PubChem BioAssay data set” (2004)
# The source made the active and inactive calls.
# Tests used:
# [1] = molecular target: T1, Corticotropin-releasing factor receptor 2/Corticotropin-releasing factor-binding protein (Homo sapiens, UniProt P24387+Q13324); assay: activators of CRF receptor 2 with binding protein – uHTS hits, confirmation (AID 602473); format: functional; details: read-out: EC50_Mean
# T1 sequence (Q13324 whole entry): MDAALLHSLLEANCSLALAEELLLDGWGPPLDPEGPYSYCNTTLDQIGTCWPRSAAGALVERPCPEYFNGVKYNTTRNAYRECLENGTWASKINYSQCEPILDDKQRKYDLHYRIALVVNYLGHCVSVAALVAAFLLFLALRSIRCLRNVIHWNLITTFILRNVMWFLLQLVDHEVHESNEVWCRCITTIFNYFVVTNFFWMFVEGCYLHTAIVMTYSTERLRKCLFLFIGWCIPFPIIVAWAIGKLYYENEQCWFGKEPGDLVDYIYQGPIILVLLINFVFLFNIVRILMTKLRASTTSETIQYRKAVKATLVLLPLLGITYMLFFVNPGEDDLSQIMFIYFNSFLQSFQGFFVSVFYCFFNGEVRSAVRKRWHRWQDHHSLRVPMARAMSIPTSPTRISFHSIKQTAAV
# T1 sequence (P24387 whole entry): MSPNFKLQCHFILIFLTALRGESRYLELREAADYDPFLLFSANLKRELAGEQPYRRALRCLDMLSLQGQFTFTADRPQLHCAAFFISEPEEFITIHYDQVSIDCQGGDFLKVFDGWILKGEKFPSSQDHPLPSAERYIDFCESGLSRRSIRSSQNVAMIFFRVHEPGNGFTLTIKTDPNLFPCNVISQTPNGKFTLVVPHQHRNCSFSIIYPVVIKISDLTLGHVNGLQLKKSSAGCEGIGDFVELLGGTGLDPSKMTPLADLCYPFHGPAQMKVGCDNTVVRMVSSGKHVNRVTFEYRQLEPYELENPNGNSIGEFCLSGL
# Estrogen receptor = molecular target: T2, Estrogen receptor (Homo sapiens, UniProt P03372);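 note: potency for inhibiting coactivator peptide recruitment to the receptor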
# T2 sequence (P03372 whole entry): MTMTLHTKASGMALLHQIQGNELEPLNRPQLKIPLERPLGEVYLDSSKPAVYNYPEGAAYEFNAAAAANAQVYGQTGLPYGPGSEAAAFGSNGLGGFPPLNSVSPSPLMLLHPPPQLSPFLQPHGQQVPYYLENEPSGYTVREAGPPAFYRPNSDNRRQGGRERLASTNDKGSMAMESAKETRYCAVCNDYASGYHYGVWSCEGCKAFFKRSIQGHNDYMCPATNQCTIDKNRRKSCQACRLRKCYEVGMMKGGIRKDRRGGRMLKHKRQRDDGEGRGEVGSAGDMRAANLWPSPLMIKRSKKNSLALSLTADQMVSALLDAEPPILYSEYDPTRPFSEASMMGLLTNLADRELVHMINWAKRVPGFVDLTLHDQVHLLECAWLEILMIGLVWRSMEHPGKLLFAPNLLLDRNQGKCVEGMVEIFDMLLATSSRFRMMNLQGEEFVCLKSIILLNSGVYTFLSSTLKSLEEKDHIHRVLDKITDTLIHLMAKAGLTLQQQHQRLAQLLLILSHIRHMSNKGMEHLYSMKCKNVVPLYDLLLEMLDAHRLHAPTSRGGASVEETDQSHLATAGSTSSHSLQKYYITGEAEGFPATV
# Procathepsin L = Procathepsin L (Homo sapiens, UniProt P07711); assay: cathepsin L inhibitors, dose response, counter-screen for M1/M17 aminopeptidase inhibitor project, biochemical, QFRET, 1536-well (AID 2214)
# Aspartyl aminopeptidase = molecular target: T3, Aspartyl aminopeptidase (Plasmodium falciparum 3D7, UniProt Q8I2J3); assay: Counterscreen for inhibitors of M1 and M17 aminopeptidases: QFRET-based biochemical high throughput dose response assay for inhibitors of the Plasmodium falciparum M18 Aspartyl Aminopeptidase (PFM18AAP). [Related PubChem assays: 1619 (Screening assay (M17LAP inhibitors).), 1445 (Screening assay (M1AAP inhibitors).)]
# T3 sequence (Q8I2J3 whole entry): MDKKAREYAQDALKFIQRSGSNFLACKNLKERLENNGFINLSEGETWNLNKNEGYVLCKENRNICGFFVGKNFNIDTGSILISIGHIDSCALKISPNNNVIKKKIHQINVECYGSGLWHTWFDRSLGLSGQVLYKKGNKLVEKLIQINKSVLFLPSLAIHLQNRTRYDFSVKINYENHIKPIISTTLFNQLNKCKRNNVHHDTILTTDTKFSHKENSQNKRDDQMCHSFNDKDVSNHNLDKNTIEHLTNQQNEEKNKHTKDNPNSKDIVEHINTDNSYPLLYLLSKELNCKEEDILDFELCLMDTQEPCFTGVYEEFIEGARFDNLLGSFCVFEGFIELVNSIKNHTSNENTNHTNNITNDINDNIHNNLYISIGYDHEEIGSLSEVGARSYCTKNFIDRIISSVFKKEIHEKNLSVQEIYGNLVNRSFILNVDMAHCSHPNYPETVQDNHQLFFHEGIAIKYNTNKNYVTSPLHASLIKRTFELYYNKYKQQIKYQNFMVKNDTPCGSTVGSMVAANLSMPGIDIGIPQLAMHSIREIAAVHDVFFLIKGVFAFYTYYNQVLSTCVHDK
# Leucine aminopeptidase = molecular target: T4, Leucine aminopeptidase (Plasmodium falciparum 3D7, UniProt Q8IL11); assay: P. falciparum M17LAP inhibitors, primary screen, biochemical, fluorogenic H-Leu-NHMec substrate, 1536-well (AID 1619); format: functional
# T4 sequence (Q8IL11 whole entry): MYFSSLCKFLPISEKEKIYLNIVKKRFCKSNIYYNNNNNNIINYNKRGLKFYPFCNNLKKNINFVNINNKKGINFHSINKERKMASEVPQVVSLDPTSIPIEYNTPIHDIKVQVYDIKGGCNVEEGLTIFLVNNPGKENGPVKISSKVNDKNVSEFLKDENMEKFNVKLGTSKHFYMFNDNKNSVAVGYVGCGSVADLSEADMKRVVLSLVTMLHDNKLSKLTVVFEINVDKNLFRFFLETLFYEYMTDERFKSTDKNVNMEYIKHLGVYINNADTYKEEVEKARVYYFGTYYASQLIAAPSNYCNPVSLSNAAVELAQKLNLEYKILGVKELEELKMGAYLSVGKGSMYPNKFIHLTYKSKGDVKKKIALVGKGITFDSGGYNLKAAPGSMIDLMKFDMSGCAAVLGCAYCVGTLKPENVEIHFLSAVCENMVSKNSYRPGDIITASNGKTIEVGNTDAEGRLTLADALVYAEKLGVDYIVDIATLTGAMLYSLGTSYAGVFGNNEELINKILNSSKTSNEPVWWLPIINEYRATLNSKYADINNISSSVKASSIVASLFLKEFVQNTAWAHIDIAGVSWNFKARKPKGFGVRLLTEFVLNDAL
# [2] = molecular target: T5, Aryl hydrocarbon receptor (Homo sapiens, UniProt P35869); assay: Luminescence-based cell-based high throughput dose response assay for activators of the Aryl Hydrocarbon Receptor (AHR). [Related pubchem assays: 2796 (Primary screen (AHR activators in singlicate)), 2845 (Confirmation screen (AHR activators in triplicate)), 434939 (Counterscreen (PXR activators in triplicate)), 2804 (Summary (AHR activators))]; format: ADME
# T5 sequence (P35869 whole entry): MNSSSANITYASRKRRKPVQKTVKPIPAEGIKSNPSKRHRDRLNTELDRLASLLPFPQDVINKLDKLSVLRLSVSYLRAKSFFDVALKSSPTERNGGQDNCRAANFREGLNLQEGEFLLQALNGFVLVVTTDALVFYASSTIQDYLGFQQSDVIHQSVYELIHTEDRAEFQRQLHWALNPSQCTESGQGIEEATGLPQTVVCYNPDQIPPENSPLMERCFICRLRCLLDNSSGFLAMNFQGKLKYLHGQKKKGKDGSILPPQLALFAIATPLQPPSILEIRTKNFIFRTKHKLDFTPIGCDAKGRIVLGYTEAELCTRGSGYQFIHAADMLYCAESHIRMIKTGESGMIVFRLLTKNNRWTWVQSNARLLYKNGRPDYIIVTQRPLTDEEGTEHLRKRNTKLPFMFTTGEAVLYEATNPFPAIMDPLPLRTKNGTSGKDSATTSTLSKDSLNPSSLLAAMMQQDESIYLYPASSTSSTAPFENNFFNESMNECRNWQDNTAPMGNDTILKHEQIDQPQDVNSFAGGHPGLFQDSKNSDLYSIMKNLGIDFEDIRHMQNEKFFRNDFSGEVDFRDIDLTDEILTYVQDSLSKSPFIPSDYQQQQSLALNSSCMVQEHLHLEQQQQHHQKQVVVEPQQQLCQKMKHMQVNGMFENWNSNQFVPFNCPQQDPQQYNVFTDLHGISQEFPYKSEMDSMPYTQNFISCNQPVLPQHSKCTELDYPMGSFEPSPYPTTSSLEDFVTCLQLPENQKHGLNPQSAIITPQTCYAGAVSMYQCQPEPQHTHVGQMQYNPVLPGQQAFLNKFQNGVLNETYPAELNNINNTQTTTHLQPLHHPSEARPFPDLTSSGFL
# [3] = HEp-2 cell cytotoxicity, dose response, cytotoxicity control for RSV inhibitor project, HTS (AID 2410); format: functional; details: human respiratory syncytial virus
# [4] = molecular target: Peroxisome proliferator-activated receptor gamma/Nuclear receptor coactivator 1 (Homo sapiens, UniProt P37231); format: functional;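 note: agonist potency as compounds enhance coactivator SRC-1 recruitment to PPARgamma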
# [5] = molecular target: Peroxisome proliferator-activated receptor gamma/Nuclear receptor coactivator 3 (Homo sapiens, UniProt P37231); format: functional;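 note: agonist potency for raising coactivator recruitment to the receptor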
# [6] = molecular target: Peroxisome proliferator-activated receptor gamma/Nuclear receptor coactivator 2 (Homo sapiens, UniProt P37231); format: functional;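 note: agonist potency for raising coactivator recruitment to the receptor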
# Prothrombin = Prothrombin (Homo sapiens, UniProt P00734); assay: Thrombin 1536 HTS Dose Response Confirmation. [Related pubchem assays: 1046 (Thrombin 1536 HTS; hits were confirmed in this assay)]; format: functional
# [7] = A cytotoxicity screen of small molecule inhibitors of the PhoP region in Salmonella typhi identified in the primary screen. [Related pubchem assays: 1850, 1864, 1985 ]; format: functional
# Estrogen receptor beta [8] = molecular target: T6, Estrogen receptor beta (Homo sapiens, UniProt Q92731);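 note: recombinant ER-beta bound to coactivator SRC1 peptide in presence of estradiol agonist; inhibitors block coactivator peptide binding and lower the FRET signal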
# cells [9] = format: functional
# [10] = cytotoxicity toward NIH3T3 fibroblasts, dose response, counter-screen, cell-based, ATP luminescence, mouse fibroblasts (AID 2010); format: functional;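 note: cells exposed to compound for about 90 hours before reading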
# cells [11] = assay: cells
# [12] = microbe, parasite or virus in culture; format: functional; details: Mycobacterium tuberculosis
# [13] = inhibitors of intracellular T. cruzi replication, confirmation, NIH3T3 host cells, beta-gal luminescence (AID 2044); format: functional, cell-based;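 note: intracellular parasites grown in NIH/3T3 mouse fibroblasts as host cells; luminescent beta-galactosidase reporter signal from transgenic T. cruzi replicating inside host cells; inhibitors lower the luminescence signal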
# Cytochrome P450 3A4 = Cytochrome P450 3A4 (Homo sapiens, UniProt P08684); details: Potency;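 note: confirmatory qHTS run detecting inhibitors and substrates of CYP3A4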
# Cytochrome P450 2D6 = Cytochrome P450 2D6 (Homo sapiens, UniProt P10635); assay: qHTS Assay for Inhibitors and Substrates of Cytochrome P450 2D6. [Related pubchem assays: 410 ]; format: ADME; details: read-out: Potency
# [14] = molecular target: Induced myeloid leukemia cell differentiation protein Mcl-1 (Homo sapiens, UniProt Q07820); format: functional
# Estrogen receptor beta [15] = molecular target: T6, Estrogen receptor beta; assay: ERβ–SRC-3 coactivator interaction inhibitors, confirmation, orthogonal assay, biochemical, ELISA, streptavidin-HRP readout (AID 1060)
# [16] = molecular target: T7, Carboxy-terminal domain RNA polymerase II polypeptide A small phosphatase 1 (Homo sapiens, UniProt Q9GZU7); assay: inhibitors of CTDSP1, concentration-response testing, biochemical assay, absorbance-based, actives from ultra-high-throughput screening (AID 540297); format: functional
# T7 sequence (Q9GZU7 whole entry): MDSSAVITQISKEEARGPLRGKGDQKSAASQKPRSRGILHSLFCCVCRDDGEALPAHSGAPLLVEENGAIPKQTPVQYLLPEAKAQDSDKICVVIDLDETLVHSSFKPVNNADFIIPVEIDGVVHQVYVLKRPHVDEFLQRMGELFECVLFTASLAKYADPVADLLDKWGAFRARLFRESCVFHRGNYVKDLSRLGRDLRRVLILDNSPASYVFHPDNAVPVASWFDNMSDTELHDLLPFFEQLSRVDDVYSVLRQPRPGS
# T6 sequence (Q92731 whole entry): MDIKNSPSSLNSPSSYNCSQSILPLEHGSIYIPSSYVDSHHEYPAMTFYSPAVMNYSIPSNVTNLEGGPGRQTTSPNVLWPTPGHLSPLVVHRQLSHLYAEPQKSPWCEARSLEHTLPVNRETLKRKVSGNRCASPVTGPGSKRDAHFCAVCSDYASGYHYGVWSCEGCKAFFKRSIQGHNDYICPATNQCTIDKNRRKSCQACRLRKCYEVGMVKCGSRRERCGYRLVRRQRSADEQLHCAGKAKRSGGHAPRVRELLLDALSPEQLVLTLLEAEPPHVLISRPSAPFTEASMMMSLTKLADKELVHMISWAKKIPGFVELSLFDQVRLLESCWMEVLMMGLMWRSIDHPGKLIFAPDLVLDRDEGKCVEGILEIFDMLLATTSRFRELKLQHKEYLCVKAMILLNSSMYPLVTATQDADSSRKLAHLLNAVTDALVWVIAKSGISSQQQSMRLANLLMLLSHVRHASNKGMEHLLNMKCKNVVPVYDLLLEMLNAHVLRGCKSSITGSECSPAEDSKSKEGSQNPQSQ
# Cytochrome P450 2D6, sequence (P10635 whole entry): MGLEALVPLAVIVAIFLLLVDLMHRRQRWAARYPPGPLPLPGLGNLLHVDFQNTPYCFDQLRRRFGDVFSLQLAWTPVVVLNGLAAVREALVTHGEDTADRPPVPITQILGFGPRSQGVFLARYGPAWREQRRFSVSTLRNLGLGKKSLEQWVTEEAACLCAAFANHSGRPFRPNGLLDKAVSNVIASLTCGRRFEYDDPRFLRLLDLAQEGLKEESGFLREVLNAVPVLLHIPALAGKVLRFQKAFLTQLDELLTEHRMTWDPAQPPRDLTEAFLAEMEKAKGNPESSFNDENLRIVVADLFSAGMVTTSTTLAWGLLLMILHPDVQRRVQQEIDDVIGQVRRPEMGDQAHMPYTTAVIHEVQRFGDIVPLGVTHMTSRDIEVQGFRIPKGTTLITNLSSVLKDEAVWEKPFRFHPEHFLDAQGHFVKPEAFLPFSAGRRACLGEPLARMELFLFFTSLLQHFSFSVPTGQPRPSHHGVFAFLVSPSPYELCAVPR
# Procathepsin L, sequence (P07711 whole entry): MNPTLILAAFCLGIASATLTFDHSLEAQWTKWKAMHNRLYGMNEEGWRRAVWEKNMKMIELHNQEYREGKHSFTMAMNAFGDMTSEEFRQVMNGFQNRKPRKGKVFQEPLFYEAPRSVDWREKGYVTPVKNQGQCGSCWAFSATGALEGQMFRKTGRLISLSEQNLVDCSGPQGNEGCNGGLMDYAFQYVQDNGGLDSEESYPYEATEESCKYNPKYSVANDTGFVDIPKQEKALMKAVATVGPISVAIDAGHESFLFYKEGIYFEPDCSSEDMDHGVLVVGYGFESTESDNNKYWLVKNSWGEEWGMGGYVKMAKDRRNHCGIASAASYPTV
# Cytochrome P450 3A4, sequence (P08684 whole entry): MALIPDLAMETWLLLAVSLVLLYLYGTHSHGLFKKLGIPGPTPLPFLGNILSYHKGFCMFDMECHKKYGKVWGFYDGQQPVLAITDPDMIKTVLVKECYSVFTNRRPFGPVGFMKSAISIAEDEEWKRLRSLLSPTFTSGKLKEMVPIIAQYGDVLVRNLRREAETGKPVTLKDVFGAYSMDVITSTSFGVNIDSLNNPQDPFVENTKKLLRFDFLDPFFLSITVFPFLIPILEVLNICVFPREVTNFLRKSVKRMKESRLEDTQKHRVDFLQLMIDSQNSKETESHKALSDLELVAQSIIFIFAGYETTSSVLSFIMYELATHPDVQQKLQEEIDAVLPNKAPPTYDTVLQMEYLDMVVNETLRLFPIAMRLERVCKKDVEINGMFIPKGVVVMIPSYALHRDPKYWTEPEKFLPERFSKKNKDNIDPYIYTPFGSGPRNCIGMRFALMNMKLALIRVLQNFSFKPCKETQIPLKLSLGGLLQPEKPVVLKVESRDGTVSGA
# Induced myeloid leukemia cell differentiation protein Mcl-1, sequence (Q07820 whole entry): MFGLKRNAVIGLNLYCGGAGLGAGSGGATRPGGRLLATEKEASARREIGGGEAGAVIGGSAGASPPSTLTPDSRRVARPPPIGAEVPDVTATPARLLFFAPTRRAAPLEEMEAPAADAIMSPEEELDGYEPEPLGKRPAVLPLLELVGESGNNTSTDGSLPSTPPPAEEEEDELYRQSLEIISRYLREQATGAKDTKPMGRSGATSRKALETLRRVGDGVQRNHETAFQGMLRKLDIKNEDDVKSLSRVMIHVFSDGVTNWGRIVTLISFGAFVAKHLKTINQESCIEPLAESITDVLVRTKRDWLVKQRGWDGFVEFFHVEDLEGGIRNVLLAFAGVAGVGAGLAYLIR
# Peroxisome proliferator-activated receptor gamma/Nuclear receptor coactivator 2, sequence (P37231 whole entry): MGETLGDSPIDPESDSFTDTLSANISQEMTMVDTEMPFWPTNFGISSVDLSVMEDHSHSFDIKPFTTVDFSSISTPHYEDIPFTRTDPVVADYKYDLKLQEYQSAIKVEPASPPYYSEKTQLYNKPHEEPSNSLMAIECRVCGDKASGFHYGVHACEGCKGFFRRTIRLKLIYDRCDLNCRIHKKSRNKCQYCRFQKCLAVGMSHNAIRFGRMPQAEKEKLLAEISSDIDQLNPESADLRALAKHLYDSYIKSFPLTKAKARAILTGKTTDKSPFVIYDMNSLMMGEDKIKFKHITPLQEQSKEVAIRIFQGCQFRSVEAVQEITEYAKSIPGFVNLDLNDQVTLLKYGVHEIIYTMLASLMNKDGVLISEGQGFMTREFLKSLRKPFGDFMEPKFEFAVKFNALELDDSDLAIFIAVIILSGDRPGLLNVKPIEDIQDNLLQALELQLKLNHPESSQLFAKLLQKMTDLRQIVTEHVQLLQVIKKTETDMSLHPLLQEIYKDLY
# Peroxisome proliferator-activated receptor gamma/Nuclear receptor coactivator 2, sequence (Q15596 whole entry, further chain): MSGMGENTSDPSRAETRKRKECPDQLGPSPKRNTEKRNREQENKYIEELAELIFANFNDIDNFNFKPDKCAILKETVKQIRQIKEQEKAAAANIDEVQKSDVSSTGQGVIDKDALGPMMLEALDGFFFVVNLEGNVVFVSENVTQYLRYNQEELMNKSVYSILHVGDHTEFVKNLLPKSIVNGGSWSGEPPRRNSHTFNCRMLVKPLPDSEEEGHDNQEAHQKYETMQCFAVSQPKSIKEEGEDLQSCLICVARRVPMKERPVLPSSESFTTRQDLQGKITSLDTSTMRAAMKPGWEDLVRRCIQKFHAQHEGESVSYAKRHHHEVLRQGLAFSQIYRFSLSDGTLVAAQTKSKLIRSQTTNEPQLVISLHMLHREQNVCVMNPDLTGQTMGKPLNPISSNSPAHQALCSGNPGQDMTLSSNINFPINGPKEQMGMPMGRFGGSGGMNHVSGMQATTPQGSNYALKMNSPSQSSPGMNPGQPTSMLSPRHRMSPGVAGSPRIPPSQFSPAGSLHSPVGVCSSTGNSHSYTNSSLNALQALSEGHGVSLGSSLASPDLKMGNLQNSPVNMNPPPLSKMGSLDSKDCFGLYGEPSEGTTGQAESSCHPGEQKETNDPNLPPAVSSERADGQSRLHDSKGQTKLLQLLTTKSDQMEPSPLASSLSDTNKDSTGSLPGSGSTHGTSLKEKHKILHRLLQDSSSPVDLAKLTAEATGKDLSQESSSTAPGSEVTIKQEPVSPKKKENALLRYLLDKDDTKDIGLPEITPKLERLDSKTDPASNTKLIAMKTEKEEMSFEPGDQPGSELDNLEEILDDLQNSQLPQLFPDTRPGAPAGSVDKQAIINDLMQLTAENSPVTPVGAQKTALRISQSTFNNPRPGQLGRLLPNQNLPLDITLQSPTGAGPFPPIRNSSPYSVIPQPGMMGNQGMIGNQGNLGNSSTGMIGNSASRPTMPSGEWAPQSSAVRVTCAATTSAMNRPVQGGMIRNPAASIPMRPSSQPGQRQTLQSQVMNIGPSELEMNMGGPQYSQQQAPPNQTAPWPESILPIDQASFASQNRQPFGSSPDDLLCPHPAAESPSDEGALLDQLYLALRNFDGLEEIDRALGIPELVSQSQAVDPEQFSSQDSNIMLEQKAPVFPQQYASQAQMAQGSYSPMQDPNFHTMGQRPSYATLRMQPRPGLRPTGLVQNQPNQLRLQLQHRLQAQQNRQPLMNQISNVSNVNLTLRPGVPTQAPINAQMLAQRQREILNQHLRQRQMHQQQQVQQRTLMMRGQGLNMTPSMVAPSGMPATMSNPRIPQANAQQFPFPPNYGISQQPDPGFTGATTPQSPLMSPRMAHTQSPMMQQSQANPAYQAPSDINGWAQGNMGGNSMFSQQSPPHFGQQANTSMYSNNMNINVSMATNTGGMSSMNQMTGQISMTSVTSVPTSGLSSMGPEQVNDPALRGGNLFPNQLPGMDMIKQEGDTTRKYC
compound,measurement,setting,value
CCOC(=O)c1cc2ccccc2n1CCN(CC)CC,EC50,[1],6.45 µM (active)
same,IC50,Estrogen receptor,> 50 µM (not active)
CC1(C)Cc2c(sc(NC(=O)C3CC(Cl)=CCC3C(=O)O)c2C#N)CO1 (stereo not drawn),IC50,Procathepsin L,> 59.6 µM (not active)
same,IC50,Aspartyl aminopeptidase,> 73.5 µM (not active)
same,IC50,Leucine aminopeptidase,1.4 µM (active)
Cc1cc(C)n2cc(-c3ccc(Cl)cc3)c(C(=O)O)c2n1,EC50,[2],0.994 µM (active)
same,CC50,[3],38.9 µM (active)
COc1cc(OC)cc(-n2nnnc2SCC(=O)Nc2ccc(C(C)=O)cc2)c1,EC50,[4],8.56 µM (active)
same,EC50,[5],8.1 µM (active)
same,EC50,[6],5.13 µM (active)
same,IC50,Prothrombin,> 50 µM (not active)
Cc1ccc(OCC(O)Cn2c(N)nc3c2c(=O)n(C)c(=O)n3C)cc1 (stereo not drawn),EC50,[7],> 50 µM (active)
O=C(Nc1ccc(Cc2ccncc2)cc1)C1CCC(N2C(=O)C3CC=CCC3C2=O)CC1 (stereo not drawn),IC50,Estrogen receptor,> 50 µM (not active)
same,IC50,Estrogen receptor beta [8],> 50 µM (not active)
Nc1ncncc1-c1ccc(Cl)cc1,EC50,[7],> 50 µM (active)
O=C(c1cc([N+](=O)[O-])cc([N+](=O)[O-])c1)N(Cc1nnc(-c2ccccc2Cl)o1)C1CC1,IC50,cells [9],1.75 µM (active)
same,EC50,[10],> 60 µM (not active)
same,EC50,cells [11],0.068 µM (active)
same,CC50,[12],> 40 µM (active)
same,EC50,[13],< 0.1 µM (active)
CCCCc1nc2c(c3c1CC(C)OC3)CN(CCOc1ccccc1)CC2 (stereo not drawn),AC50,Cytochrome P450 3A4,3.16 µM (inconclusive)
same,AC50,Cytochrome P450 2D6,3.16 µM (inconclusive)
C=CCn1c(N)cc(=O)nc1SCC(=O)Nc1ccc2ccccc2c1,IC50,Procathepsin L,> 59.6 µM (not active)
same,IC50,Aspartyl aminopeptidase,> 73.5 µM (not active)
same,IC50,Leucine aminopeptidase,5.68 µM (active)
CN(C)c1ccc(CNCCC2CCOC(C)(C)C2)cc1 (stereo not drawn),EC50,[10],> 30 µM (not active)
same,EC50,cells [11],0.036 µM (active)
same,EC50,[13],< 0.1 µM (active)
O=C(Nc1cccc(-c2cn3cccnc3n2)c1)c1ccc2c(c1)OCO2,IC50,Estrogen receptor,6.67 µM (active)
Nc1c(C(=O)c2ccc(Br)cc2)oc2ccccc12,EC50,[2],3.3 µM (active)
CCN(/N=C/c1ccc(Cl)cc1)c1cc(=O)n(C)c(=O)[nH]1,EC50,[2],1.12 µM (active)
Cc1ccc(/C=c2\sc3nc(-c4ccccc4Br)nn3c2=O)o1,IC50,[14],3.18 µM (active)
same,IC50,Estrogen receptor beta [15],0.0611 µM (not active)
same,IC50,Estrogen receptor beta [8],> 50 µM (not active)
same,IC50,Prothrombin,> 50 µM (not active)
same,IC50,[16],5.95 µM (active)
same,IC50,Leucine aminopeptidase,95.5 µM (active)
CC1=NCCc2c1[nH]c1cc(O)ccc21 [HARMALOL],AC50,Cytochrome P450 2D6,31.6 µM (inconclusive)
